Ten molecules from ChEMBL document CHEMBL1201862, “PubChem BioAssay data set” (2004) can be followed below.

Test systems include KM12; HCT-15; OVCAR-4; LOX IMVI; HCT-116; Malme-3M; RXF 393; SK-MEL-5; NCI-H522; CCRF-CEM; HOP-62; NCI-H23; MOLT-4; HT-29; CAKI-1; COLO 205; MCF7; OVCAR-3; MDA-MB-231; UACC-257.
What all share (test): inhibition of tumour cell growth, NCI panel, 48 h

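Growth conditions: 96-well plates. Treatment: test compound, 48 hours, 5 concentrations. Analysis: linear interpolation between bracketing concentrations; unreached endpoints set to highest concentration. At the GI50, growth is halved.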 Activity calls are given as the source filed them. Rule as the data show it: active = GI50 up to about 1.1 µM and inactive = higher.

Take `O=C1Nc2ccc(Br)cc2C1=Nc1cccnc1`: the GI50 in the test on KM12 was 27.4 µM (inactive); in the test with HCT-15 it was 22.1 µM; in the test with OVCAR-4, 7.23 µM (inactive); with LOX IMVI, 15.7 µM (inactive); in the test with HCT-116 it was 20.1 µM (inactive); in the test on Malme-3M it was 22.3 µM (inactive). For the same molecule, the GI50 is 15.2 µM (inactive) in the test on RXF 393; 17.8 µM (inactive) in the test with SK-MEL-5; 13.2 µM (inactive) in the test with NCI-H522; 16.2 µM (inactive) with CCRF-CEM; 25 µM (inactive) in the test on HOP-62; 20.7 µM (inactive) in the test with NCI-H23. The GI50 in the test on MOLT-4 is 22.5 µM (inactive); with HT-29, 21 µM (inactive); in the test with CAKI-1, 20.7 µM (inactive); in the test on COLO 205 it was 67.3 µM (inactive); in the test on MCF7 it was 22.7 µM (inactive); with OVCAR-3, 18.9 µM (inactive). In addition, the GI50 is 18.1 µM (inactive) in the test on MDA-MB-231 and 21.4 µM (inactive) in the test with UACC-257.

In the case of `CN(CCN)[C@H](CSSC[C@@H](c1ccccc1O)N(C)CCN)c1ccccc1O`, the GI50 in the test with KM12 was 11.1 µM (inactive); in the test with HCT-15 it was 5.33 µM; in the test on OVCAR-4 it was 14.1 µM (inactive); in the test with LOX IMVI, 4.27 µM (inactive); in the test on HCT-116, 4.12 µM (inactive); in the test with Malme-3M, 16.3 µM (inactive). For the same molecule, the GI50 is 18.9 µM (inactive) with RXF 393; 12 µM (inactive) with SK-MEL-5; 16.5 µM (inactive) with NCI-H522; 1.44 µM (inactive) in the test with CCRF-CEM; 12.1 µM (inactive) in the test with HOP-62; 13.8 µM (inactive) with NCI-H23. The GI50 in the test with MOLT-4 was 4.73 µM (inactive); with HT-29, 9.55 µM (inactive); in the test with CAKI-1 it was 13 µM (inactive); with COLO 205 it was 24.8 µM (inactive); with MCF7 it was 14.9 µM (inactive); in the test on OVCAR-3, 8.38 µM (inactive). The values for the GI50 with MDA-MB-231 and with UACC-257 were 8.81 µM (inactive) and 14.9 µM (inactive), respectively.

In the case of `Cc1ccc2c(c1)C(C1Cc3cccc(C)c3C1=O)OC2=O` (stereo not given), the GI50 was 96.2 µM (inactive) with KM12; greater than 100 µM with HCT-15; 75.3 µM (inactive) in the test with OVCAR-4; 34.2 µM (inactive) in the test with LOX IMVI; > 100 µM (inactive) in the test with HCT-116; > 100 µM (inactive) in the test on Malme-3M. Besides, the GI50 was 22.4 µM (inactive) with RXF 393; 56.4 µM (inactive) with SK-MEL-5; > 100 µM (inactive) in the test on NCI-H522; > 100 µM (inactive) in the test with CCRF-CEM; > 100 µM (inactive) in the test on HOP-62; > 100 µM (inactive) with NCI-H23. The GI50 was 96.4 µM (inactive) in the test on MOLT-4; > 100 µM (inactive) with HT-29; > 100 µM (inactive) in the test on CAKI-1; > 100 µM (inactive) with COLO 205; 81.1 µM (inactive) in the test with MCF7; > 100 µM (inactive) in the test on OVCAR-3. The GI50 in the test with MDA-MB-231 and with UACC-257 was > 100 µM (inactive) each time.

With `CCOP(=O)(OCC)/C(C#N)=C/c1cnc[nH]1`, the GI50 in the test on KM12 was > 100 µM (inactive); in the test with HCT-15, greater than 100 µM; in the test on OVCAR-4, > 100 µM (inactive); in the test with LOX IMVI it was > 100 µM (inactive); with HCT-116, > 100 µM (inactive); with Malme-3M, > 100 µM (inactive). Moreover, the GI50 in the test with RXF 393, with SK-MEL-5, in the test on NCI-H522, in the test with CCRF-CEM, in the test on HOP-62 and in the test with NCI-H23 was > 100 µM (inactive) each time. Further, the GI50 in the test with MOLT-4, with HT-29, in the test on CAKI-1, in the test on COLO 205, in the test with MCF7 and with OVCAR-3 was > 100 µM (inactive) throughout. Also, the GI50 in the test on MDA-MB-231 and in the test on UACC-257 was > 100 µM (inactive) in each case.

With `Cc1ccc(-c2c3c(n(C4OC(CO)C(O)C(O)C4O)c(=S)c2C#N)CC(C)(C)CC3=O)cc1` (stereo not given), the GI50 in the test on KM12 was > 100 µM (inactive); in the test on HCT-15, 45.9 µM; in the test with OVCAR-4 it was > 100 µM (inactive); in the test with LOX IMVI it was 48.3 µM (inactive); in the test on HCT-116, 40.4 µM (inactive); in the test with Malme-3M, 96.6 µM (inactive). In addition, the GI50 was > 100 µM (inactive) in the test on RXF 393; 34.6 µM (inactive) in the test with SK-MEL-5; > 100 µM (inactive) with NCI-H522; 68.2 µM (inactive) with CCRF-CEM; > 100 µM (inactive) in the test on HOP-62; > 100 µM (inactive) in the test on NCI-H23. For the same molecule, the GI50 with MOLT-4 is 36.5 µM (inactive); with HT-29, 33.1 µM (inactive); in the test on CAKI-1 it was > 100 µM (inactive); in the test on COLO 205 it was > 10 µM (inactive); with MCF7, 45.7 µM (inactive); in the test with OVCAR-3, > 100 µM (inactive). The results for the GI50 with MDA-MB-231 and with UACC-257 were 80.5 µM (inactive) and > 100 µM (inactive), respectively.

As to `O=C(O)CCCC(=O)Nn1c(Cc2ccc(Cl)cc2)n[nH]c1=O`, the GI50 is > 100 µM (inactive) in the test on KM12; greater than 100 µM with HCT-15; > 100 µM (inactive) in the test with OVCAR-4; > 100 µM (inactive) with LOX IMVI; > 100 µM (inactive) with HCT-116; > 100 µM (inactive) in the test on Malme-3M. Also, the GI50 is > 100 µM (inactive) in the test with RXF 393; > 100 µM (inactive) with SK-MEL-5; 71.8 µM (inactive) in the test on NCI-H522; > 100 µM (inactive) with CCRF-CEM; > 100 µM (inactive) in the test on HOP-62; > 100 µM (inactive) in the test on NCI-H23. Further, the GI50 in the test on MOLT-4, with HT-29, in the test on CAKI-1, with COLO 205, with MCF7 and in the test with OVCAR-3 was > 100 µM (inactive) in each case. The GI50 in the test on MDA-MB-231 and in the test on UACC-257 was > 100 µM (inactive) in each case.

For `Cc1ccc(CNNC(=O)c2cc[n+]([BH2-]C#N)cc2)cc1`, the GI50 in the test with KM12 was > 100 µM (inactive); in the test with HCT-15 it was greater than 100 µM; in the test with OVCAR-4, > 100 µM (inactive); in the test with LOX IMVI it was > 100 µM (inactive); in the test on HCT-116, > 100 µM (inactive); in the test on Malme-3M it was > 100 µM (inactive). Besides, the GI50 in the test on RXF 393 was > 100 µM (inactive); with SK-MEL-5, > 100 µM (inactive); with NCI-H522, 95.5 µM (inactive); with CCRF-CEM it was 26.3 µM (inactive); in the test with HOP-62, > 100 µM (inactive); with NCI-H23 it was > 100 µM (inactive). Besides, the GI50 is 71.3 µM (inactive) with MOLT-4; > 100 µM (inactive) in the test on HT-29; > 100 µM (inactive) with CAKI-1; > 100 µM (inactive) with COLO 205; 18.1 µM (inactive) in the test with MCF7; > 100 µM (inactive) in the test on OVCAR-3. Further, the GI50 in the test on MDA-MB-231 was 99.3 µM (inactive); with UACC-257, > 100 µM (inactive).

As to `Oc1cccc2ccc(SSc3ccc4cccc(O)c4n3)nc12`, the GI50 in the test with KM12 is 13.7 µM (inactive); in the test on HCT-15, 22.3 µM; in the test on OVCAR-4, 16.1 µM (inactive); in the test on LOX IMVI, 18.2 µM (inactive); with HCT-116, 18.2 µM (inactive); in the test with Malme-3M, 16 µM (inactive). For the same molecule, the GI50 is 16 µM (inactive) in the test on RXF 393; 33.5 µM (inactive) in the test on SK-MEL-5; 15.8 µM (inactive) in the test with NCI-H522; 3.36 µM (inactive) with CCRF-CEM; 17.7 µM (inactive) in the test with HOP-62; 16.9 µM (inactive) in the test on NCI-H23. For the same molecule, the GI50 with MOLT-4 was 9.59 µM (inactive); with HT-29, 18.7 µM (inactive); with CAKI-1, 18.5 µM (inactive); in the test on COLO 205, 18.8 µM (inactive); in the test on MCF7, 5.89 µM (inactive); with OVCAR-3 it was 16.1 µM (inactive). The GI50 is 16.7 µM (inactive) in the test on MDA-MB-231 and 20.2 µM (inactive) with UACC-257.

As for `O=C1c2ccccc2-n2c1nc1ccc([N+](=O)[O-])cc1c2=O`, the GI50 is 68.9 µM (inactive) with KM12; 29.3 µM with HCT-15; > 10 µM (inactive) in the test with OVCAR-4; 22.5 µM (inactive) in the test on LOX IMVI; 27.1 µM (inactive) with HCT-116; 51.5 µM (inactive) in the test with Malme-3M. Also, the GI50 is 60.4 µM (inactive) with RXF 393; 95.9 µM (inactive) with SK-MEL-5; 82.6 µM (inactive) in the test on NCI-H522; 34.8 µM (inactive) in the test with CCRF-CEM; 30.6 µM (inactive) in the test on HOP-62; 48.2 µM (inactive) with NCI-H23. Further, the GI50 with MOLT-4 is 26.3 µM (inactive); with HT-29, > 10 µM (inactive); in the test with CAKI-1 it was 20.2 µM (inactive); with COLO 205, > 100 µM (inactive); in the test with MCF7, 11.7 µM (inactive); in the test on OVCAR-3, 21.1 µM (inactive). Also, the GI50 was 45.7 µM (inactive) in the test on MDA-MB-231 and 89.7 µM (inactive) in the test on UACC-257.

Turning to `c1csc(-c2nccc3c2[nH]c2ccccc23)c1`, the GI50 with KM12 is 19.5 µM (inactive); with HCT-15, 20.4 µM; in the test on OVCAR-4, 18.2 µM (inactive); in the test on LOX IMVI, 20.5 µM (inactive); in the test with HCT-116, 16.3 µM (inactive); in the test on Malme-3M, 24.2 µM (inactive). The GI50 in the test on RXF 393 was 16.3 µM (inactive); in the test with SK-MEL-5, 16.7 µM (inactive); in the test on NCI-H522, 15.8 µM (inactive); with CCRF-CEM it was 21.2 µM (inactive); in the test on HOP-62 it was 18.3 µM (inactive); in the test on NCI-H23, 18.7 µM (inactive). Further, the GI50 in the test on MOLT-4 was 22.2 µM (inactive); with HT-29, 15.1 µM (inactive); in the test with CAKI-1, 27.4 µM (inactive); in the test on COLO 205, 14.8 µM (inactive); in the test on MCF7, 3.35 µM (inactive); in the test on OVCAR-3, 20.5 µM (inactive). Besides, the GI50 in the test with MDA-MB-231 is 20.6 µM (inactive); in the test with UACC-257, 21.2 µM (inactive).
